Measurements published in patent publication US5776433A, “Flunisolide aerosol formulations” (Minnesota Mining and Manufacturing Company, priority 1995, dated 1998).

Format: physicochemical
Excerpt: This intermediate level of solubility can lead to particle size increase of the drug in a suspension formulation. It is well known that particles having a diameter of greater than about 10 μm are not suitable for inhalation to the lung. Therefore particle size increase can threaten the utility of a pharmaceutical aerosol formulation.

**Q.** Which “solubility in 1:1 blend of HFA 134a and HFA 227” value does the source give for `CC1(C)O[C@@H]2C[C@H]3[C@@H]4C[C@H](F)C5=CC(=O)C=C[C@]5(C)[C@H]4[C@@H](O)C[C@]3(C)[C@]2(C(=O)CO)O1` [flunisolide hemihydrate, 6α-fluoro-11β, 16α, 17,21-tetrahydroxypregna-1,4-diene-3,20-dione cyclic 16,17-acetal with acetone] here?
**A.** Its value is “about 0.007 % by weight”.

**Q.** What about the “solubility in HFA 134a” value of the same compound?
**A.** Its value is “about 0.006 % by weight”.

**Q.** And the “solubility in HFA 227” value?
**A.** The value was “about 0.004 % by weight”.
